{"source": "patent US20060166870A1", "about": "“Treatment of glioblastoma with thymosin-alpha 1” (Rhode Island Hospital, priority 2001, published 2006)", "key": {"[1]": {"tested_on": "Rat 9 L glioblastoma cells", "test": "MTT assay of mitochondrial function in thymalfasin-treated 9 L cells", "assay_type": "cell-based", "conditions": "24 hours, various concentrations of thymalfasin, vs vehicle", "protocol": "(§1) All cell lines were kept at 37° C. in a humidified atmosphere containing 5% CO2. The cell lines were obtained from the American Type Culture Collection and were certified as free of pathogens.\n(§2) Thymosin alpha 1 treatment: For acute thymalfasin treatment, cells seeded in 96-well plates at a cell density of 20,000 cells/well were treated with 10^−5 M thymalfasin for 24 hours. Cells treated chronically with thymalfasin were grown in flasks and treated every 24 hours with 10^−5 M thymalfasin (added to fresh medium) for the duration of the treatment (3 days). In addition, for the determination of a dose-response curve to thymalfasin for 9 L cells, cells were treated with serially diluted amounts of thymalfasin, yielding thymalfasin concentrations ranging from 50 µM to […].\n(§3) MTT assays were conducted on 9 L and 293 cell lines to determine the effects of thymalfasin treatment and/or H2O2-induced oxidative stress on the mitochondrial function of the cells. After treatment, 10 μl of MTT solution were added to each well containing 100 μl of medium. The plates were incubated with the MTT dye in the 37° C. incubator for 15 min-1 hour, depending on the cell type. The medium was then removed, and 200 μl of acidic Isopropanol was added to each well. The plates were shaken at room temperature until cell lysis occurred, and then read in a Packard SpectraCount™ machine at 540 nm."}, "[2]": {"tested_on": "Rat 9 L glioblastoma cells", "test": "Crystal violet (CV) cell viability assay in thymalfasin-treated 9 L cells", "assay_type": "cell-based", "conditions": "thymalfasin vs vehicle-treated control", "protocol": "as §1, §2\nCrystal Violet (CV) was also used to stain cells in 96-well plates. After discarding the medium, 20 μl of crystal violet was added to each well and shaken at room temperature for 10 minutes. The plates were then washed several times with warm water and dried. 100-200 μl (depending on cell density) of PBS w/1% SDS was added to each well. The plates were incubated at room temperature on a shaker until the cells were sufficiently lysed. The plates were read at 540 nm to detect differences in cell viability between the various groups tested."}, "9 L glioblastoma cells [3]": {"tested_on": "9 L glioblastoma cells", "test": "Microtiter immunocytochemical ELISA (MICE) assay of pro-apoptosis/survival gene products, 9 L cells", "assay_type": "cell-based, rat", "protocol": "(§4) Microtiter Immunocytochemical ELISA (MICE) Assays (de la Monte, 1999) were done on 9 L and 293 cells. Cells were seeded in 96-well plates, treated with 10^−5M thymalfasin for 24 hours, and histofixed overnight prior to analysis using MICE assay. the fixed cells were permeabilized with 0.05% saponin in Tris-buffered saline (50 mM Tris, pH 7.5, 0.9% NaCl; TBS), blocked with Superblock-TBS (Pierce, Rockford, Ill.), and then incubated overnight at 4° C. with primary antibodies to proliferating cell nuclear antigen (PCNA), bcl-2, p21/Wwaf-1, p53, FasL, FasR, TNF-R1, or GAPDH, each diluted to 0.5-1 μg/ml in TBS containing 0.05% Tween-20 and 0.5% bovine serum albumin (TBST-BSA). Immunoreactivity was detected using horseradish peroxidase conjugated secondary antibody (Pierce, Rockford, Ill.) and the TMB soluble substrate (Pierce, Rockford, Ill.). Reactions were stopped by the addition of 1 M H2SO4 and absorbances were measured at 450 nm in a Spectracount microplate reader (Packard Instrument Co., Meriden, Conn.). Subsequently, cell density was measured by staining the adherent cells with Coomassie blue dye and measuring the absorbance of the eluted dye (de la Monte, 1999). The MICE index was the calculated ratio of TMB and Coomassie blue absorbance measured in the same culture well. Mean±S.D. of results obtained from 16 replicate culture wells were used for inter-group statistical comparisons.\n(§5) In this regard, the expression of gene products that promote either apoptosis or cell survival were examined, using housekeeping gene expression as control. The studies were performed in 96-well plates using the microtiter immunocytochemical ELISA […] assay to generate data from multiple replicate cultures. […] Thus, the results of the MICE assays indicate that for the two cell lines, thymalfasin works via different pathways to increase the susceptibility of the cells to cell death by apoptosis."}, "293 human kidney cells": {"tested_on": "293 human kidney cells", "test": "Microtiter immunocytochemical ELISA (MICE) assay of pro-apoptosis/survival gene products, 293 cells", "assay_type": "cell-based", "protocol": "as §4, §5"}, "9 L glioblastoma cells [4]": {"tested_on": "9 L glioblastoma cells", "test": "H2O2-induced oxidative stress sensitivity of thymalfasin-treated 9 L cells (MTT)", "assay_type": "cell-based, rat", "protocol": "H2O2 was used with cells to induce oxidative stress. […] In the experiments in which serially diluted amounts of thymalfasin were administered to the cells, a constant amount of the […] H2O2 was used to treat the cells. For 9 L cells, an H2O2 curve was developed in order to determine the correct H2O2 concentration with which to treat the cells.\nas §3\nValidation of the ability of thymalfasin to increase the susceptibility of 9 L and 293 cells to apoptosis was sought testing H2O2-induced oxidative stress. As determined through MTT assays, 9 L cells treated with thymalfasin for 24 hours and subsequently H2O2 for 24 hours did indeed show significant loss in viability in comparison to 9 L cells treated only with H2O2 for 24 hours (FIG. 3)."}, "9 L glioblastoma cells [5]": {"tested_on": "9 L glioblastoma cells", "test": "BCNU-mediated killing of thymalfasin-treated 9 L cells", "assay_type": "cell-based, rat", "conditions": "24 or 72 hours thymalfasin treatment"}, "9 L glioblastoma cells [6]": {"tested_on": "9 L glioblastoma cells", "test": "Streptolysin O + recombinant Granzyme B killing assay (ATPlite viability)", "assay_type": "cell-based, rat", "conditions": "thymalfasin 24 h (acute) or 72 h (chronic), then SLO+Granzyme B 1 or 3 hours, p<0.001", "protocol": "In order to determine the differential susceptibility of 9 L glioblastoma cells treated (or not) with thymalfasin to cytotoxic T-lymphocyte (CTL) induced apoptosis, experimental assays were conducted in which 9 L cells were treated both acutely for 24 hours and chronically for 72 hours with thymalfasin, after which they were harvested, re-seeded into 96-well black plates (7.5×10^5 cells/75 μl/well), and exposed to 20,000 units/ml Streptolysin O (SLO) plus 100 ng recombinant Granzyme B (reaction volume 100 μl) for 1 or 3 hours at 37° C. The SLO was used in place of perforin to permeabilize the cells, and recombinant Granzyme B was used to standardize the assay. Control studies included parallel reactions in which SLO, Granzyme B, or both were omitted. Viable cell density was measured using the ATPlite assay (Packard Instrument Company, Meriden, Conn.) which has a broad linear dynamic range correlating relative light units with cell densities between 10^3 to 10^6 cells per culture well.\nIn vivo, malignant neoplastic cells are killed by cytotoxic T cells and macrophages that are recruited by pro-inflammatory cytokines such as IL-2 and IL-12. […] Viability was measured using the ATP luminescence assay and within group comparisons were made to determine the relative killing associated with SLO+Granzyme B treatment. […]"}, "[7]": {"tested_on": "Primary neuronal cortical cells", "test": "Cell viability of primary cortical neuron cultures (CV and MTT)", "assay_type": "cell-based", "excerpt": "Primary cortical neuron cultures were studied to enable selection of thymalfasin doses that would not be toxic to non-neoplastic brain cells.\nHowever, this dose is higher than established experimental and clinical dosages."}, "9 L glioblastoma": {"tested_on": "9 L glioblastoma", "conditions": "for lympho-mononuclear inflammatory cell infiltrates in brain: histopathology, day 20", "protocol": "Rat 9 L glioblastoma cells were obtained from the American Type Culture Collection (Washington, D.C.) and certified as pathogen-free. The cells were maintained in Dulbecco's Modified Eagle's Medium (DMEM) supplemented with 5% fetal calf serum (FCS) and 2 mM glutamine. Antibiotics were not added to the medium. Prior to injection, the cells were rinsed with phosphate-buffered saline (PBS), detached from the culture surfaces and dissociated into single cell suspensions with 0.25% trypsin/0.05% EDTA. The dissociated cells were washed 3 times in serum-free DMEM and finally suspended in serum-free DMEM at a density of 5×10^6 viable cells/ml. Viable cell density was determined using Trypan blue exclusion and a hemocytometer chamber.\nAn in vivo model of glioblastoma was generated in adult (250-300 grams) Long Evans rats. Rats were anesthetized with a single intraperitoneal injection of a cocktail containing 100 mg/kg ketamine and […] in 50% ethanol. After anesthetization, the head was shaved and prepped with povidone iodine, and the rat was placed in a stereotactic headframe. A midline incision was made and a 3 mm burr hole was drilled over the frontal lobe, and 2 μl of 9 L glioma cell suspension (10,000 cells total) was injected directly into the brain using a Hamilton syringe with attached 26-gauge needle placed at a depth of 3.5 mm. After removal of the needle, the wound was washed with sterile saline, the animal was removed from the frame and the skin was closed with resorbable sutures. The rats were returned to their cages and observed for any signs of deterioration including weight loss, reduced food and water intake, hemiparesis, seizures, or inactivity. If any degree of suffering was observed, the animals were euthanized with 120 mg/kg sodium pentobarbital. Animals were observed daily and weighed weekly.\nThe tumor was allowed to develop for 5 days, followed by anti-neoplastic treatment. Rats were divided into 6 treatment groups: vehicle control; low (45 μg/kg) thymalfasin; high (200 μg/kg) thymalfasin; low thymalfasin+BCNU; high thymalfasin+BCNC; and BCNU (9.4 mg/kg) only. BCNU was administered as a single intraperitoneal (I.P.) injection on day 6 after the intracerebral tumor inoculation. Rats treated with thymalfasin were given single I.P. injections of thymalfasin for 3 consecutive days, beginning on day 6 after tumor cell inoculation. Rats were sacrificed on day 20 post tumor inoculation. The rats were killed by I.P. injection of 120 mg/kg sodium pentobarbital. The brains were harvested, sectioned, immersion fixed in Histochoice (Amresco Co., Solon, Ohio), and processed for paraffin embedding. Tumor burden was assessed from the gross tissue blocks and the histological sections stained with hematoxylin and eosin. Histological sections were also used in immunohistochemical staining studies to detect inflammatory cell infiltrates.\nA semiquantitative histological grading scale was used to assess tumor burden for inter-group comparisons: 0—cure, no residual tumor; 1—microscopic tumor (<1 mm) confined to the superficial cortex; 2—tumor mass occupying less than 25% of the hemisphere cross section (1-2 mm); 3—tumor mass occupying up to 50% of the hemisphere cross section (2-3 mm) and extending into deep structures; 4—massive tumor burden with involvement of 50-90% of the hemisphere cross section, with herniation. The sections were coded and graded simultaneously by two separate individuals without knowledge of treatment group. […]"}, "[8]": {"conditions": "cited from earlier work"}, "[9]": {"conditions": "10^-5 M thymalfasin, 24 hours, P<0.01"}}, "note": "Several values for one entry are separate records, joined by “and”; a condition that tells them apart may be missing. Identical values can stand only once. Entries after “also recorded” stand apart in the source; their conditions may differ. No end group written: not given here."}
{"molecule": "Thymosin α-1 (SDAAVDTSSEITTKDLKEKKEVVEEAEN; ends and bridges not checked; UniProt P06454 2-29, looked up) [thymalfasin, 28-amino acid peptide, a synthetic form of a naturally occurring compound that is found in circulation]", "values": [{"measurement": "cell mitochondrial functioning (MTT)", "setting": "[1]", "result": "minimal effect; also recorded: insignificant decrease; also recorded: no direct effect"}, {"measurement": "cell viability / direct cytotoxic effect", "setting": "[2]", "result": "minimal effect; also recorded: no significant direct cytotoxic effects; also recorded: no direct effect"}, {"measurement": "increase in FasL level relative to vehicle-treated controls", "setting": "9 L glioblastoma cells [3]; [9]", "result": 65.89, "unit": "%"}, {"measurement": "increase in FasR level relative to vehicle-treated controls", "setting": "9 L glioblastoma cells [3]; [9]", "result": 44.08, "unit": "%"}, {"measurement": "increase in TNF-R1 level relative to vehicle-treated controls", "setting": "9 L glioblastoma cells [3]; [9]", "result": 22.18, "unit": "%"}, {"measurement": "GAPDH expression level", "setting": "9 L glioblastoma cells [3]; thymalfasin 24 hours", "result": "not significantly affected"}, {"measurement": "bcl-2 expression level", "setting": "9 L glioblastoma cells [3]; thymalfasin 24 hours", "result": "not significantly affected"}, {"measurement": "change in FasL expression", "setting": "293 human kidney cells; data not shown", "result": "no significant changes"}, {"measurement": "change in FasR expression", "setting": "293 human kidney cells; data not shown", "result": "no significant changes"}, {"measurement": "change in TNF-R1 expression", "setting": "293 human kidney cells; data not shown", "result": "no significant changes"}, {"measurement": "reduction in bcl-2", "setting": "293 human kidney cells; thymalfasin, P<0.01, data not shown", "result": 36.67, "unit": "%"}, {"measurement": "decrease in mitochondrial functioning (MTT) vs cells treated only with H2O2", "setting": "9 L glioblastoma cells [4]; 9 L cells, thymalfasin 24 hours then 270 μM H2O2 24 hours", "result": 26.6, "unit": "%"}, {"measurement": "9 L cells killed by ordinarily non-lethal (sub-lethal) H2O2 after thymalfasin treatment", "setting": "9 L glioblastoma cells [4]; 24 or 72 hours thymalfasin treatment", "result": "25% and 30-50%"}, {"measurement": "9 L cells killed by sub-lethal concentrations of BCNU after thymalfasin treatment", "setting": "9 L glioblastoma cells [5]", "result": 40, "unit": "%"}, {"measurement": "cell viability after SLO+Granzyme B relative to SLO, Granzyme B or vehicle alone", "setting": "9 L glioblastoma cells [6]", "result": "significant reductions in cell viability"}, {"measurement": "decrease in viability (MTT) of primary neuronal cortical cells", "setting": "[7]; highest concentration of thymalfasin used (3.3×10^−7M as printed)", "result": 30, "unit": "%"}, {"measurement": "cell viability of primary neuronal cortical cells", "setting": "[7]; serial dilutions, 3.3×10^−5 M to 1×10^−9 M, experimental doses", "result": "no decrease in cell viability"}, {"measurement": "tumor burden / tumor growth", "setting": "9 L glioblastoma; Long Evans rats, 10,000 9 L cells intracerebral, I.P. treatment from day 6, sacrifice day 20, BCNU 9.4 mg/kg, thymalfasin 45 or 200 μg/kg", "result": "the same as control or worse"}, {"measurement": "lympho-mononuclear inflammatory cell infiltrates in brain", "setting": "9 L glioblastoma", "result": "conspicuous"}, {"measurement": "intracerebral swelling and herniation", "setting": "9 L glioblastoma; rat, in vivo", "result": "extreme intracerebral swelling"}, {"measurement": "dose found to be safe for humans", "setting": "[8]", "result": "≤ 16", "unit": "mg/kg body weight/day"}]}
{"molecule": "O=NN(CCCl)C(=O)NCCCl", "note": "[BCNU, bischloroethyl nitrosurea]", "values": [{"measurement": "reduction of tumor burden in responding animals", "setting": "9 L glioblastoma; BCNU 9.4 mg/kg I.P. single dose, nearly half the group showed no response", "result": "up to 50%"}, {"measurement": "lympho-mononuclear inflammatory cell infiltrates in brain", "setting": "9 L glioblastoma", "result": "scant"}]}
